Experiments:
CEM-SS [1] = test: Inhibitory activity against HIV-1 IIIB in CEM-SS infected cells relative to AZT; type: functional, Homo sapiens
[2] = biological target: Human immunodeficiency virus type 1 protease (Human immunodeficiency virus 1) (UniProt Q72874); test: Inhibitory activity against HIV protease at a concentration of 5 uM
CEM-SS [3] = test: Inhibitory activity against HIV-1 IIIB in CEM-SS infected cells; type: functional, cell-based; settings: Homo sapiens
MT4 = test: Inhibitory activity against HIV-1 IIIB in MT-4 infected cells; type: functional, cell-based; settings: Homo sapiens
CEM-SS [4] = test: Inhibitory activity against HIV-1 IIIB in CEM-SS infected cells; In active; type: functional, cell-based, Homo sapiens
[5] = biological target: Human immunodeficiency virus type 1 protease (Human immunodeficiency virus 1) (UniProt Q72874); test: Inhibitory activity against HIV protease at a concentration of 50 uM
CEM-SS [6] = test: Inhibitory activity against HIV-1 IIIB in CEM-SS infected cells (Experiment 2); type: functional, cell-based; settings: Homo sapiens

Row | Compound | Relative Potency (CEM-SS [1]) | inhibition [2] [%] | EC50 (CEM-SS [3]) [µM] | EC50 (MT4) [µM] | EC50 (CEM-SS [4]) | inhibition [5] [%] | EC50 (CEM-SS [6]) [µM]
1 | Cc1ccccc1CNC(=O)[C@@H]1CSCN1C(=O)[C@@H](O)[C@H](Cc1ccccc1)NC(=O)C(C)C(C)C(=O)OCC1OC(n2cc(C)c(=O)[nH]c2=O)CC1N=[N+]=[N-] (stereo partly drawn) | 1.2 | 57 | 0.0089 |  |  |  | 
2 | Cc1ccccc1CNC(=O)[C@@H]1CSCN1C(=O)[C@@H](O)[C@H](Cc1ccccc1)NC(=O)C(C)C(C)C(=O)O (stereo partly drawn) |  | 88 |  |  |  |  | 
3 | Cc1cn(C2CC(N=[N+]=[N-])C(COC(=O)C(C)(C)CC(=O)N[C@@H](Cc3ccccc3)[C@H](O)C(=O)N3CSC(C)(C)[C@H]3C(=O)NC(C)(C)C)O2)c(=O)[nH]c1=O (stereo partly drawn) | 6.6 | 41 | 0.019 |  |  |  | 
4 | CSC[C@H](NC(=O)COc1cccc2cnccc12)C(=O)N[C@@H](Cc1ccccc1)[C@H](O)C(=O)N1CSC[C@H]1C(=O)NC(C)(C)C |  | 100 | 0.04 | 0.00057 |  |  | 
5 | Cc1cn(C2CC(N=[N+]=[N-])C(COC(=O)C(C)(C)CC(=O)N[C@@H](Cc3ccccc3)[C@H](O)C(=O)N3CSC[C@H]3C(=O)NC(C)(C)C)O2)c(=O)[nH]c1=O (stereo partly drawn) | 4.7 | 9 | 0.027 |  |  |  | 
6 | Cc1ccccc1CNC(=O)[C@H]1N(C(=O)[C@@H](O)[C@H](Cc2ccccc2)NC(=O)CC(C)(C)C(=O)O)CSC1(C)C |  | 100 |  |  | Not Active | 78 | 
7 | Cc1cn(C2CC(N=[N+]=[N-])C(COC(=O)CCC(=O)N[C@@H](Cc3ccccc3)[C@H](O)C(=O)N3CSC[C@H]3C(=O)NC(C)(C)C)O2)c(=O)[nH]c1=O (stereo partly drawn) | 3 | 14 | 0.042 |  |  |  | 
8 | CC(C(=O)O)C(C)C(=O)N[C@@H](Cc1ccccc1)[C@H](O)C(=O)N1CSC[C@H]1C(=O)NC(C)(C)C (stereo partly drawn) |  | 97 |  | > 2000 |  | 32 | 
9 | Cc1cn(C2CC(N=[N+]=[N-])C(COC(=O)C(C)C(C)C(=O)N[C@@H](Cc3ccccc3)[C@H](O)C(=O)N3CSC(C)(C)[C@H]3C(=O)NC(C)(C)C)O2)c(=O)[nH]c1=O (stereo partly drawn) | 1.4 | 69 | 0.09 |  |  |  | 
10 | CC(C)(C)NC(=O)[C@@H]1CSCN1C(=O)[C@@H](O)[C@H](Cc1ccccc1)NC(=O)CC(C)(C)C(=O)O |  | 93 |  | > 2000 |  | 20 | 
11 | Cc1cn(C2CC(N=[N+]=[N-])C(COC(=O)C(C)C(C)C(=O)N[C@@H](Cc3ccccc3)[C@H](O)C(=O)N3CSC[C@H]3C(=O)NC(C)(C)C)O2)c(=O)[nH]c1=O (stereo partly drawn) | 4.7 | 29 | 0.027 |  |  |  | 
12 | Cc1ccccc1CNC(=O)[C@@H]1CSCN1C(=O)[C@@H](O)[C@H](Cc1ccccc1)NC(=O)CC(C)(C)C(=O)O |  | 87 |  |  |  |  | 
13 | CC(C(=O)O)C(C)C(=O)N[C@@H](Cc1ccccc1)[C@H](O)C(=O)N1CSC(C)(C)[C@H]1C(=O)NC(C)(C)C (stereo partly drawn) |  | 99 |  | 225 |  | 78 | 
14 | Cc1ccccc1CNC(=O)[C@H]1N(C(=O)[C@@H](O)[C@H](Cc2ccccc2)NC(=O)CC(C)(C)C(=O)OCC2OC(n3cc(C)c(=O)[nH]c3=O)CC2N=[N+]=[N-])CSC1(C)C (stereo partly drawn) | 46 | 83 | 0.00024 |  |  |  | 
15 | Cc1ccccc1CNC(=O)[C@@H]1CSCN1C(=O)[C@@H](O)[C@H](Cc1ccccc1)NC(=O)CC(C)(C)C(=O)OCC1OC(n2cc(C)c(=O)[nH]c2=O)CC1N=[N+]=[N-] (stereo partly drawn) | 2.9 | 11 | 0.0038 |  |  |  | 
16 | Cc1cn([C@H]2C[C@H](N=[N+]=[N-])[C@@H](CO)O2)c(=O)[nH]c1=O [ZIDOVUDINE] | 1 |  |  |  |  |  | 0.011
17 | Cc1ccccc1CNC(=O)[C@H]1N(C(=O)[C@@H](O)[C@H](Cc2ccccc2)NC(=O)C(C)C(C)C(=O)O)CSC1(C)C (stereo partly drawn) |  | 100 |  |  |  | 76 | 
18 | CC(C)(C)NC(=O)[C@@H]1CSCN1C(=O)[C@@H](O)[C@H](Cc1ccccc1)NC(=O)CCC(=O)O |  | 74 |  |  |  |  | 
19 | CC(C)(C)NC(=O)[C@H]1N(C(=O)[C@@H](O)[C@H](Cc2ccccc2)NC(=O)CC(C)(C)C(=O)O)CSC1(C)C |  | 99 |  | 52 |  | 76 | 
20 | Cc1ccccc1CNC(=O)[C@H]1N(C(=O)[C@@H](O)[C@H](Cc2ccccc2)NC(=O)C(C)C(C)C(=O)OCC2OC(n3cc(C)c(=O)[nH]c3=O)CC2N=[N+]=[N-])CSC1(C)C (stereo partly drawn) | 1.5 | 96 | 0.0073 |  |  | 39 | 

Reference: ChEMBL document CHEMBL1132068, “A new class of anti-HIV agents: synthesis and activity of conjugates of HIV protease inhibitors with a reverse transcriptase inhibitor” (Bioorg Med Chem Lett, 1999)
